Results reported in publication PMC7614683, “A small molecule PI3Kα activator for cardioprotection and neuroregeneration” (Nature, 2023).

Target: T1, full length p110α/p85α (Homo sapiens, UniProt P42336)
T1 construct: Full-length human p110α was expressed either in a complex with full-length human p85α (for HTS, biochemistry and HDX-MS); 6xHis tag followed by TEV protease site (N); host or cells: Spodoptera frugiperda Sf9, baculovirus
Test: HDX-MS
Format: binding
Protocol: Sample preparation: HDX-MS experiments were carried out as described previously. […] In total, three biological replicates, i.e. three separate protein preparations, each with exchange experiments carried out in triplicate were conducted. Data presented in the manuscript is a single biological replicate. Data acquisition and analysis were as follows: Each sample was thawed and injected onto an M-Class Acquity UPLC with HDX Technology (Waters) kept at 0.1°C. Proteins were digested in-line using an Enzymate Pepsin Column (Waters, #186007233) at 15°C for 2 min at 200 μl/min. Peptic peptides were then eluted onto an Acquity UPLC BEH C18 Column (Waters, #186002346) equilibrated in Pepsin-A buffer (0.1% formic acid) and separated using a 5-35% gradient of Pepsin-B buffer (0.1% formic acid, 99% acetonitrile) over 7 min at a flowrate of 40 μl/min. Data were collected on a Waters Cyclic IMS, with an electrospray ionisation source, from 50-2000 m/z. Data were collected in the HDMS^E mode. A single pass of the cyclic IMS was conducted. A “blank” sample of protein dilution buffer with quench was run between samples, and carry-over of peptides was routinely monitored. Five replicates were used to identify non-deuterated peptides. Criteria used to include peptides in the HDX-MS dataset were: minimum intensity 5000, minimum sequence length 5, maximum sequence length 25, a minimum of 3 fragment ions, a minimum of 0.1 products per amino acid, a minimum score of 6.62, a maximum MH+ Error of 10 ppm, identification in at least two datasets with a retention time RSD of less than 10%. Data was analysed using Protein Lynx Global Server (Waters) and DynamX (Waters). All peptides were manually inspected for EX1 kinetics and sufficient quality of the peptide envelope. Data quality, experiment design, and reporting of data meets the criteria as determined by the HDX-MS community. Uptake files were created using Baryonyx. Data are available via ProteomeXchange with identifier PXD037721.

T1 sequence (P42336 whole entry): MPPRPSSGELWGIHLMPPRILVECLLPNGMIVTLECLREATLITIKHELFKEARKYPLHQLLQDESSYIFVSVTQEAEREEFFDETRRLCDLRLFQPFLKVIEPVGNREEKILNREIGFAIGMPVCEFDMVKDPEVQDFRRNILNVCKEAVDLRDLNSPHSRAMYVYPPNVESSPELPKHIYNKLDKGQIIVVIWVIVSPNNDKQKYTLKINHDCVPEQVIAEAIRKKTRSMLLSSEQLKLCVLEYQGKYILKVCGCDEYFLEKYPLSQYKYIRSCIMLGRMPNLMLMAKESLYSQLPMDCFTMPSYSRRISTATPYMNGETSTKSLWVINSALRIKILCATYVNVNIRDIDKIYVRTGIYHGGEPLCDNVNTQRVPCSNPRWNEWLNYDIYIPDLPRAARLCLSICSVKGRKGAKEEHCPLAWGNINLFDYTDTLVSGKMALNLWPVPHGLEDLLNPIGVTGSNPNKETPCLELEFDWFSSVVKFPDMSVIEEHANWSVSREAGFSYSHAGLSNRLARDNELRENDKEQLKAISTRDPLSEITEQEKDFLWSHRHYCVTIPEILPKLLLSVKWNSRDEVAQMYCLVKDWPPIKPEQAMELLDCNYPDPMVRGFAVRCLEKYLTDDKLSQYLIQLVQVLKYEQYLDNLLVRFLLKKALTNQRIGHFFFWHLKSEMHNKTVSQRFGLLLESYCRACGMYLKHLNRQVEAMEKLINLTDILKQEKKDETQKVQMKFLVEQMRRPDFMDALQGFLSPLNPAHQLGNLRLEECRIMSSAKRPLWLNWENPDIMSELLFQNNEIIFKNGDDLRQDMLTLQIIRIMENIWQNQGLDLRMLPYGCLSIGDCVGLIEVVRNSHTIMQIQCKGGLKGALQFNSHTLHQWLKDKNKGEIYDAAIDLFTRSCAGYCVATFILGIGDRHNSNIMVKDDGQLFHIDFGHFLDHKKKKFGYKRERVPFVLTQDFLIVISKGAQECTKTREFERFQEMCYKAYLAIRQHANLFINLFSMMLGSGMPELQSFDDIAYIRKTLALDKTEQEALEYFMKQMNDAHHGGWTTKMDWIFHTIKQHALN
T1 sequence (P27986 whole entry partner): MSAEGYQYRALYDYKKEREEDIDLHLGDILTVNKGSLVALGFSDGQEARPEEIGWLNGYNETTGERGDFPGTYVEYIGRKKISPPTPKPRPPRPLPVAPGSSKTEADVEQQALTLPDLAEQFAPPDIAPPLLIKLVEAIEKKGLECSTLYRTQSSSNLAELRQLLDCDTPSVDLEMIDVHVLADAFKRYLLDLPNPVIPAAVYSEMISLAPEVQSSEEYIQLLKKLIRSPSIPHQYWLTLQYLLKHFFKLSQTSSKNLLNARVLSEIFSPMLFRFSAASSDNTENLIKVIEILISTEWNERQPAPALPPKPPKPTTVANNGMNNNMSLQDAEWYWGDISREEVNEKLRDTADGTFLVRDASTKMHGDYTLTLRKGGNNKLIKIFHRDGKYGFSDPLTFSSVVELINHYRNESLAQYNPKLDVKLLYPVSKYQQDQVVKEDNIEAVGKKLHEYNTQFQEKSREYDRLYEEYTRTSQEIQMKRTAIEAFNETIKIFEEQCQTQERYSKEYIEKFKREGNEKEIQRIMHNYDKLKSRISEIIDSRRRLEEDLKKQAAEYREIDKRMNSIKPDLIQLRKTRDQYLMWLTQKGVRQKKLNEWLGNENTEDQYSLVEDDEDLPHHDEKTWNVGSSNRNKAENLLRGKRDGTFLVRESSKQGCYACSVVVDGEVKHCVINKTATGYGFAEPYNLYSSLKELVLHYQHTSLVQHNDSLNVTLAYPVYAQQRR

Compound: CCN1CCN(c2ccc(Nc3cc(Nc4cccc5c4N(C(C)=O)CC5)ccn3)cc2)CC1 [Compound 1938]
- HDX difference, percentage (PK3CA_HUMAN peptide 487-498, time column 5 of 5): -0.361%
- HDX difference, percentage (PK3CA_HUMAN peptide 496-507, time column 1 of 5, deuterium exchange time 0.005): -1.7%
- HDX difference, percentage (PK3CA_HUMAN peptide 496-507, time column 2 of 5, deuterium exchange time 0.05): 0.429%
- HDX difference, percentage (PK3CA_HUMAN peptide 496-507, time column 3 of 5, deuterium exchange time 0.5): 0.5%
- HDX difference, percentage (PK3CA_HUMAN peptide 496-507, time column 4 of 5, deuterium exchange time 5): 0.6%
- HDX difference, percentage (PK3CA_HUMAN peptide 496-507, time column 5 of 5): 0.121%
- HDX difference, percentage (PK3CA_HUMAN peptide 508-520, time column 1 of 5, deuterium exchange time 0.005): -0.644%
- HDX difference, percentage (PK3CA_HUMAN peptide 508-520, time column 2 of 5, deuterium exchange time 0.05): 1.9%
- HDX difference, percentage (PK3CA_HUMAN peptide 508-520, time column 3 of 5, deuterium exchange time 0.5): 1.4%
- HDX difference, percentage (PK3CA_HUMAN peptide 508-520, time column 4 of 5, deuterium exchange time 5): 1.5%
- HDX difference, percentage (PK3CA_HUMAN peptide 508-520, time column 5 of 5): 0.952%
- HDX difference, percentage (PK3CA_HUMAN peptide 538-549, time column 1 of 5, deuterium exchange time 0.005): -0.8%
- HDX difference, percentage (PK3CA_HUMAN peptide 538-549, time column 2 of 5, deuterium exchange time 0.05): 1.0%
- HDX difference, percentage (PK3CA_HUMAN peptide 538-549, time column 3 of 5, deuterium exchange time 0.5): 0.441%
- HDX difference, percentage (PK3CA_HUMAN peptide 538-549, time column 4 of 5, deuterium exchange time 5): -1.1%
- HDX difference, percentage (PK3CA_HUMAN peptide 538-549, time column 5 of 5): -0.257%
- HDX difference, percentage (PK3CA_HUMAN peptide 538-554, time column 1 of 5, deuterium exchange time 0.005): -1.3%
- HDX difference, percentage (PK3CA_HUMAN peptide 538-554, time column 2 of 5, deuterium exchange time 0.05): 0.7%
- HDX difference, percentage (PK3CA_HUMAN peptide 538-554, time column 3 of 5, deuterium exchange time 0.5): 0.47%
- HDX difference, percentage (PK3CA_HUMAN peptide 538-554, time column 4 of 5, deuterium exchange time 5): -1.1%
- HDX difference, percentage (PK3CA_HUMAN peptide 538-554, time column 5 of 5): -0.74%
- HDX difference, percentage (PK3CA_HUMAN peptide 555-570, time column 1 of 5, deuterium exchange time 0.005): -1.2%
- HDX difference, percentage (PK3CA_HUMAN peptide 555-570, time column 2 of 5, deuterium exchange time 0.05): 0.462%
- HDX difference, percentage (PK3CA_HUMAN peptide 555-570, time column 3 of 5, deuterium exchange time 0.5): 0.2%
- HDX difference, percentage (PK3CA_HUMAN peptide 555-570, time column 4 of 5, deuterium exchange time 5): -1.4%
- HDX difference, percentage (PK3CA_HUMAN peptide 555-570, time column 5 of 5): -2.6%
- HDX difference, percentage (PK3CA_HUMAN peptide 571-583, time column 1 of 5, deuterium exchange time 0.005): -0.6%
- HDX difference, percentage (PK3CA_HUMAN peptide 571-583, time column 2 of 5, deuterium exchange time 0.05): 0.4%
- HDX difference, percentage (PK3CA_HUMAN peptide 571-583, time column 3 of 5, deuterium exchange time 0.5): 0.167%
- HDX difference, percentage (PK3CA_HUMAN peptide 571-583, time column 4 of 5, deuterium exchange time 5): -0.378%
- HDX difference, percentage (PK3CA_HUMAN peptide 571-583, time column 5 of 5): -1.4%
- HDX difference, percentage (PK3CA_HUMAN peptide 582-596, time column 1 of 5, deuterium exchange time 0.005): -1.6%
- HDX difference, percentage (PK3CA_HUMAN peptide 582-596, time column 2 of 5, deuterium exchange time 0.05): 0.374%
- HDX difference, percentage (PK3CA_HUMAN peptide 582-596, time column 3 of 5, deuterium exchange time 0.5): 0.262%
- HDX difference, percentage (PK3CA_HUMAN peptide 582-596, time column 4 of 5, deuterium exchange time 5): 0.76%
- HDX difference, percentage (PK3CA_HUMAN peptide 582-596, time column 5 of 5): 0.0749%
- HDX difference, percentage (PK3CA_HUMAN peptide 597-606, time column 1 of 5, deuterium exchange time 0.005): 0.175%
- HDX difference, percentage (PK3CA_HUMAN peptide 597-606, time column 2 of 5, deuterium exchange time 0.05): 1.6%
- HDX difference, percentage (PK3CA_HUMAN peptide 597-606, time column 3 of 5, deuterium exchange time 0.5): 0.5%
- HDX difference, percentage (PK3CA_HUMAN peptide 597-606, time column 4 of 5, deuterium exchange time 5): 1.4%
- HDX difference, percentage (PK3CA_HUMAN peptide 597-606, time column 5 of 5): 1.3%
- HDX difference, percentage (PK3CA_HUMAN peptide 610-637, time column 1 of 5, deuterium exchange time 0.005): -0.237%
- HDX difference, percentage (PK3CA_HUMAN peptide 610-637, time column 2 of 5, deuterium exchange time 0.05): 0.13%
- HDX difference, percentage (PK3CA_HUMAN peptide 610-637, time column 3 of 5, deuterium exchange time 0.5): 0.2%
- HDX difference, percentage (PK3CA_HUMAN peptide 610-637, time column 4 of 5, deuterium exchange time 5): 0.257%
- HDX difference, percentage (PK3CA_HUMAN peptide 610-637, time column 5 of 5): 0.128%
- HDX difference, percentage (PK3CA_HUMAN peptide 626-638, time column 1 of 5, deuterium exchange time 0.005): -1.2%
- HDX difference, percentage (PK3CA_HUMAN peptide 626-638, time column 2 of 5, deuterium exchange time 0.05): 1.0%
- HDX difference, percentage (PK3CA_HUMAN peptide 626-638, time column 3 of 5, deuterium exchange time 0.5): 0.459%
- HDX difference, percentage (PK3CA_HUMAN peptide 626-638, time column 4 of 5, deuterium exchange time 5): -0.333%
- HDX difference, percentage (PK3CA_HUMAN peptide 626-638, time column 5 of 5): -0.147%
- HDX difference, percentage (PK3CA_HUMAN peptide 647-658, time column 1 of 5, deuterium exchange time 0.005): -0.361%
- HDX difference, percentage (PK3CA_HUMAN peptide 647-658, time column 2 of 5, deuterium exchange time 0.05): 0.6%
- HDX difference, percentage (PK3CA_HUMAN peptide 647-658, time column 3 of 5, deuterium exchange time 0.5): 1.0%
- HDX difference, percentage (PK3CA_HUMAN peptide 647-658, time column 4 of 5, deuterium exchange time 5): 1.2%
- HDX difference, percentage (PK3CA_HUMAN peptide 647-658, time column 5 of 5): -0.0483%
- HDX difference, percentage (PK3CA_HUMAN peptide 661-687, time column 1 of 5, deuterium exchange time 0.005): -1.5%
- HDX difference, percentage (PK3CA_HUMAN peptide 661-687, time column 2 of 5, deuterium exchange time 0.05): 0.4%
- HDX difference, percentage (PK3CA_HUMAN peptide 661-687, time column 3 of 5, deuterium exchange time 0.5): 0.466%
- HDX difference, percentage (PK3CA_HUMAN peptide 661-687, time column 4 of 5, deuterium exchange time 5): 0.23%
- HDX difference, percentage (PK3CA_HUMAN peptide 661-687, time column 5 of 5): -0.271%
- HDX difference, percentage (PK3CA_HUMAN peptide 688-693, time column 1 of 5, deuterium exchange time 0.005): -3.1%
- HDX difference, percentage (PK3CA_HUMAN peptide 688-693, time column 2 of 5, deuterium exchange time 0.05): 0.6%
- HDX difference, percentage (PK3CA_HUMAN peptide 688-693, time column 3 of 5, deuterium exchange time 0.5): -0.142%
- HDX difference, percentage (PK3CA_HUMAN peptide 688-693, time column 4 of 5, deuterium exchange time 5): -0.352%
- HDX difference, percentage (PK3CA_HUMAN peptide 688-693, time column 5 of 5): -0.379%
- HDX difference, percentage (PK3CA_HUMAN peptide 692-703, time column 1 of 5, deuterium exchange time 0.005): -0.563%
- HDX difference, percentage (PK3CA_HUMAN peptide 692-703, time column 2 of 5, deuterium exchange time 0.05): 0.65%
- HDX difference, percentage (PK3CA_HUMAN peptide 692-703, time column 3 of 5, deuterium exchange time 0.5): 0.8%
- HDX difference, percentage (PK3CA_HUMAN peptide 692-703, time column 4 of 5, deuterium exchange time 5): 0.4%
- HDX difference, percentage (PK3CA_HUMAN peptide 692-703, time column 5 of 5): 0.166%
- HDX difference, percentage (PK3CA_HUMAN peptide 704-709, time column 1 of 5, deuterium exchange time 0.005): 0.4%
- HDX difference, percentage (PK3CA_HUMAN peptide 704-709, time column 2 of 5, deuterium exchange time 0.05): 0.074%
- HDX difference, percentage (PK3CA_HUMAN peptide 704-709, time column 3 of 5, deuterium exchange time 0.5): -1.2%
- HDX difference, percentage (PK3CA_HUMAN peptide 704-709, time column 4 of 5, deuterium exchange time 5): -0.7%
- HDX difference, percentage (PK3CA_HUMAN peptide 704-709, time column 5 of 5): 0.531%
